This note sets out measurements from ChEMBL document CHEMBL1134637, “Fluorescent tricyclic analogues of acyclovir and ganciclovir. A structure-antiviral activity study” (2001).

Each structure is given as a SMILES string. In brackets after ≈: the same amount, converted by molar mass. Some results are limits rather than exact numbers.

Type in all cases: functional
In assay [1] the test system is Human alphaherpesvirus 1. In words: Minimal inhibitory concentration to reduce virus-induced cytopathicity against KOS strain of human Herpes Simplex Virus -1. Background: Cytopathic effects are the visible damage that an infection or toxin causes in cultured cells.
Assay [2] relates to Human alphaherpesvirus 1. In words: Minimal inhibitory concentration to reduce virus-induced cytopathicity against McIntyre strain of human Herpes Simplex Virus-1.
The test system of assay [3] is Human alphaherpesvirus 1. The assay is described as follows: Minimal inhibitory concentration to reduce virus-induced cytopathicity against Thymidine kinase deficient(TK-) HSV-1 of Acyclovir.
The subject of assay [4] is Human alphaherpesvirus 1. The assay is described as follows: Minimal inhibitory concentration to reduce virus-induced cytopathicity against TK-/TK+ HSV-1 of VMW 837.
The test system of assay [5] is Human alphaherpesvirus 1. In words: Minimal inhibitory concentration to reduce virus-induced cytopathicity against F strain of human Herpes Simplex Virus-1 (HSV-1). The conditions noted are these: Human alphaherpesvirus 1; read-out: MIC.
Assay [6] deals with Human alphaherpesvirus 2. The assay is described as follows: Minimal inhibitory concentration to reduce virus-induced cytopathicity against 196 strain of human Herpes Simplex Virus-2.
Assay [7] relates to Human alphaherpesvirus 2. The assay is described as follows: Minimal inhibitory concentration to reduce virus-induced cytopathicity against G strain of human Herpes Simplex Virus-2. The settings on record: Human alphaherpesvirus 2; read-out: MIC.
The test system of assay [8] is Human alphaherpesvirus 2. The assay is described as follows: Minimal inhibitory concentration to reduce virus-induced cytopathicity against Lyons strain of human Herpes Simplex Virus-2.
The test system of assay [9] is Vesicular stomatitis virus. The assay is described as follows: Minimal inhibitory concentration to reduce virus-induced cytopathicity against VSV.
The next assay relates to Vaccinia virus. In words: Minimal inhibitory concentration to reduce virus-induced cytopathicity against VV. The conditions noted are these: Orthopoxvirus vaccinia.
Assay [10] can be described thus: Minimal cytotoxic concentration (MCC) to cause a microscopically detectable change in normal cell morphology.
Assay [11] has as its system Human alphaherpesvirus 1. The assay is described as follows: Minimal inhibitory concentration to reduce virus-induced cytopathicity against Thymidine kinase deficient(TK-) HSV-1 (Acyclovir).
In assay [12] the test system is Human alphaherpesvirus 1. The assay is described as follows: Minimal inhibitory concentration to reduce virus-induced cytopathicity against TK-/TK+ HSV-1 (VMW 837).

Turning to `OCCOCn1cnc2c(O)n3c(-c4ccccc4)c(-c4ccccc4)nc3nc21`, the MIC was 1.92 µg/mL (≈ 4.78 µM) with Human alphaherpesvirus 1 [1]; 9.6 µg/mL (≈ 23.9 µM) in the assay on Human alphaherpesvirus 1 [2]; greater than 16 µg/mL in the assay on Human alphaherpesvirus 1 [3]; greater than 16 µg/mL against Human alphaherpesvirus 1 [4]; 9.6 µg/mL (≈ 23.9 µM) with Human alphaherpesvirus 1 [5]; 9.6 µg/mL (≈ 23.9 µM) against Human alphaherpesvirus 2 [6]. The MIC is 1.92 µg/mL (≈ 4.78 µM) with Human alphaherpesvirus 2 [7], 16 µg/mL (≈ 39.9 µM) against Human alphaherpesvirus 2 [8], greater than 16 µg/mL in assay [9] and greater than 16 µg/mL in the assay with Vaccinia virus. In assay [10], this compound showed an MCC greater than 16 µg/mL.

`Cc1ccc(-c2cn3c(O)c4ncn(COC(CO)CO)c4nc3n2)cc1`: the MIC in the assay with Human alphaherpesvirus 1 [1] was 0.02 µg/mL (≈ 0.0541 µM); in the assay with Human alphaherpesvirus 1 [2] it was 0.08 µg/mL (≈ 0.217 µM); with Human alphaherpesvirus 1 [3] it was greater than 16 µg/mL; against Human alphaherpesvirus 1 [4], 0.1 µg/mL (≈ 0.271 µM); with Human alphaherpesvirus 1 [5], 0.01 µg/mL (≈ 0.0271 µM); with Human alphaherpesvirus 2 [6], 0.13 µg/mL (≈ 0.352 µM). The MIC in the assay with Human alphaherpesvirus 2 [7] is 0.13 µg/mL (≈ 0.352 µM); in the assay with Human alphaherpesvirus 2 [8] it was 0.08 µg/mL (≈ 0.217 µM); in [9] it was greater than 16 µg/mL; with Vaccinia virus, greater than 16 µg/mL. The MCC in assay [10] was found to be 80 µg/mL.

Regarding `OCCOCn1cnc2c(O)n3cc(-c4ccc5ccccc5c4)nc3nc21`, the MIC in the assay with Human alphaherpesvirus 1 [1] turned out to be 5.8 µg/mL (≈ 15.5 µM); with Human alphaherpesvirus 1 [2], 9.6 µg/mL (≈ 25.6 µM); in the assay on Human alphaherpesvirus 1 [3], 16 µg/mL (≈ 42.6 µM); against Human alphaherpesvirus 1 [4], 12.8 µg/mL (≈ 34.1 µM); with Human alphaherpesvirus 1 [5], 9.6 µg/mL (≈ 25.6 µM); against Human alphaherpesvirus 2 [6], 16 µg/mL (≈ 42.6 µM). Also, the MIC is 6.4 µg/mL (≈ 17 µM) in the assay on Human alphaherpesvirus 2 [7], 9.6 µg/mL (≈ 25.6 µM) with Human alphaherpesvirus 2 [8], greater than 16 µg/mL in assay [9] and greater than 16 µg/mL in the assay with Vaccinia virus. For the same compound, in assay [10], the MCC is greater than 80 µg/mL.

For `COc1cccc(-c2cn3c(O)c4ncn(COCCO)c4nc3n2)c1`, the MIC was 1.92 µg/mL (≈ 5.4 µM) against Human alphaherpesvirus 1 [1]; 0.64 µg/mL (≈ 1.8 µM) in the assay on Human alphaherpesvirus 1 [2]; greater than 80 µg/mL in the assay with Human alphaherpesvirus 1 [3]; 9.6 µg/mL (≈ 27 µM) in the assay with Human alphaherpesvirus 1 [4]; 1.92 µg/mL (≈ 5.4 µM) in the assay on Human alphaherpesvirus 1 [5]; 3.2 µg/mL (≈ 9.01 µM) against Human alphaherpesvirus 2 [6]. Further, the MIC was 1.92 µg/mL (≈ 5.4 µM) in the assay with Human alphaherpesvirus 2 [7], 3.2 µg/mL (≈ 9.01 µM) against Human alphaherpesvirus 2 [8], 240 µg/mL (≈ 675 µM) in [9] and greater than 400 µg/mL in the assay on Vaccinia virus. Also, the MCC in assay [10] was greater than 400 µg/mL.

For `Cc1c(-c2ccccc2)nc2nc3c(ncn3COCCO)c(O)n12`, the MIC against Human alphaherpesvirus 1 [1] is 0.11 µg/mL (≈ 0.324 µM); in the assay on Human alphaherpesvirus 1 [2], 0.06 µg/mL (≈ 0.177 µM); with Human alphaherpesvirus 1 [3], 3.2 µg/mL (≈ 9.43 µM); in the assay on Human alphaherpesvirus 1 [4], 3.2 µg/mL (≈ 9.43 µM); in the assay with Human alphaherpesvirus 1 [5] it was 0.04 µg/mL (≈ 0.118 µM); against Human alphaherpesvirus 2 [6], 0.1 µg/mL (≈ 0.295 µM). Also, the MIC in the assay with Human alphaherpesvirus 2 [7] is 0.16 µg/mL (≈ 0.471 µM); with Human alphaherpesvirus 2 [8], 0.07 µg/mL (≈ 0.206 µM); in assay [9], greater than 200 µg/mL; in the assay with Vaccinia virus, greater than 200 µg/mL. The compound also had an MCC in [10] of 300 µg/mL.

Take `Nc1nc2c(ncn2COCCO)c(=O)[nH]1` [ACYCLOVIR]: the MIC in the assay with Human alphaherpesvirus 1 [1] is 0.13 µg/mL (≈ 0.577 µM); in the assay with Human alphaherpesvirus 1 [2], 0.13 µg/mL (≈ 0.577 µM); in the assay on Human alphaherpesvirus 1 [11] it was 19 µg/mL (≈ 84.4 µM); in the assay on Human alphaherpesvirus 1 [12] it was 7.1 µg/mL (≈ 31.5 µM); in the assay with Human alphaherpesvirus 1 [5], 0.08 µg/mL (≈ 0.355 µM); against Human alphaherpesvirus 2 [6], 0.07 µg/mL (≈ 0.311 µM). Also, the MIC with Human alphaherpesvirus 2 [7] is 0.19 µg/mL (≈ 0.844 µM); in the assay on Human alphaherpesvirus 2 [8] it was 0.28 µg/mL (≈ 1.24 µM); in assay [9], greater than 80 µg/mL; in the assay on Vaccinia virus, greater than 80 µg/mL. This compound came in with an MCC in assay [10] greater than 400 µg/mL.

For `O=c1[nH]c(=O)n([C@H]2C[C@H](O)[C@@H](CO)O2)cc1/C=C/Br` [BRIVUDINE], the MIC against Human alphaherpesvirus 1 [1] was 0.02 µg/mL (≈ 0.06 µM); with Human alphaherpesvirus 1 [2], 0.01 µg/mL (≈ 0.03 µM); against Human alphaherpesvirus 1 [3] it was 90 µg/mL (≈ 270 µM); with Human alphaherpesvirus 1 [4], greater than 100 µg/mL; with Human alphaherpesvirus 1 [5], 0.02 µg/mL (≈ 0.06 µM); in the assay on Human alphaherpesvirus 2 [6], greater than 100 µg/mL. Moreover, the MIC with Human alphaherpesvirus 2 [7] is greater than 100 µg/mL; with Human alphaherpesvirus 2 [8] it was greater than 100 µg/mL; in assay [9] it was greater than 200 µg/mL; in the assay with Vaccinia virus, 9.2 µg/mL (≈ 27.6 µM). In assay [10], the MCC is greater than 400 µg/mL.

For `Nc1nc2c(ncn2COC(CO)CO)c(=O)[nH]1` [GANCICLOVIR], the MIC against Human alphaherpesvirus 1 [1] stood at 0.006 µg/mL (≈ 0.0235 µM); in the assay on Human alphaherpesvirus 1 [2], 0.006 µg/mL (≈ 0.0235 µM); in the assay with Human alphaherpesvirus 1 [3], 0.48 µg/mL (≈ 1.88 µM); in the assay on Human alphaherpesvirus 1 [4], 0.07 µg/mL (≈ 0.274 µM); with Human alphaherpesvirus 1 [5], 0.004 µg/mL (≈ 0.0157 µM); in the assay on Human alphaherpesvirus 2 [6], 0.02 µg/mL (≈ 0.0784 µM). In addition, the MIC was 0.01 µg/mL (≈ 0.0392 µM) in the assay with Human alphaherpesvirus 2 [7], 0.04 µg/mL (≈ 0.157 µM) against Human alphaherpesvirus 2 [8], greater than 100 µg/mL in assay [9] and greater than 100 µg/mL against Vaccinia virus. The compound also showed an MCC in assay [10] greater than 100 µg/mL.
